The test system of assay [1] is barley powdery mildew. In words: Protective greenhouse trial with Amistar (Azoxystrobin SC 250) plus adjuvant against barley powdery mildew. Format: in vivo, barley powdery mildew on barley. Conditions: azoxystrobin 5 g/ha, adjuvant 50 ml/ha, leaf segments cut 5 h after application, incubation 10 d after inoculation. As for the experimental part: Opus SC125, a commercial available pesticide sold by BASF, was tested to control barley powdery mildew (BPM) in a curative greenhouse trial, Azoxystrobin SC 250 in a protective trial. In each case, barley was cultivated in a substrate “Frustorder Erde” for three weeks. Each treatment was replicated 14 times. The adjuvant dose rate in each treatment was 50 ml/ha. 5 h after application with the equivalent of 5 g/ha azoxystrobin, leaf segments were cut off at a length of 7 cm from the stem. The leaves of the F and F-1 leaf were placed on agar. After the inoculation, the incubation time was 10 d. The assessment of the infection rate was conducted by a trained biologist.

The subject of assay [2] is barley powdery mildew. Description: Performance in both trials together (curative Opus and protective Amistar). Format: in vivo, barley powdery mildew on barley. Conditions: for Sum of infection rates: sum of OPUS and AMISTAR infection rates; for adjuvancy effect considering the performance in both trials: assessment in words, Opus and Amistar trials. Here is the method:
Opus SC125, a commercial available pesticide sold by BASF, was tested to control barley powdery mildew (BPM) in a curative greenhouse trial, Azoxystrobin SC 250 in a protective trial. In each case, barley was cultivated in a substrate “Frustorder Erde” for three weeks. Each treatment was replicated 14 times. The adjuvant dose rate in each treatment was 50 ml/ha. Inoculation of the leaves with powdery mildew (Blumeria graminis f. sp. hordei) was done 2 days prior to application to test Opus' curative action. From the stem, leaf segments were cut off with a length of 10 cm using the flag leaf (F) and 2nd leaf (F-1). Altogether, the leaves of each stem were placed on benzimidazol agar i.e. 0.5% Agar with 40 ppm benzimidazol. The concentration of Opus for the leaf application was 10 g/ha. […] The assessment of the infection rate was conducted by a trained biologist. 5 h after application with the equivalent of 5 g/ha azoxystrobin, leaf segments were cut off at a length of 7 cm from the stem. The leaves of the F and F-1 leaf were placed on agar. After the inoculation, the incubation time was 10 d. The assessment of the infection rate was conducted by a trained biologist.

The subject of assay [3] is barley powdery mildew (Blumeria graminis f. sp. hordei). In words: Curative greenhouse trial with Opus SC125 plus adjuvant against barley powdery mildew. Format: in vivo, Blumeria graminis f. sp. hordei on barley. Particulars: Opus 10 g/ha, adjuvant 50 ml/ha, inoculation 2 days prior to application, assessment 14 DAT, mildew pustules per leaf. As for the experimental part:
Opus SC125, a commercial available pesticide sold by BASF, was tested to control barley powdery mildew (BPM) in a curative greenhouse trial, Azoxystrobin SC 250 in a protective trial. In each case, barley was cultivated in a substrate “Frustorder Erde” for three weeks. Each treatment was replicated 14 times. The adjuvant dose rate in each treatment was 50 ml/ha.
Inoculation of the leaves with powdery mildew (Blumeria graminis f. sp. hordei) was done 2 days prior to application to test Opus' curative action. From the stem, leaf segments were cut off with a length of 10 cm using the flag leaf (F) and 2nd leaf (F-1). Altogether, the leaves of each stem were placed on benzimidazol agar i.e. 0.5% Agar with 40 ppm benzimidazol. The concentration of Opus for the leaf application was 10 g/ha. Assessment 14 days after treatment (14 DAT) of the efficacy against powdery mildew was done by counting the mildew pustules per leaf on a length of 7 cm. The assessment of the infection rate was conducted by a trained biologist.

As for Isoamyl + 10EO laurate [Example 3], in the assay with barley powdery mildew [1], the “Infection rate of barley powdery mildew after treatment with fungicides, AMISTAR” value (“Infection rate … AMISTAR” below) is reported as 14%. Moreover, the “Sum of infection rates” value with barley powdery mildew [2] was 18%. Also, in assay [3], the “Infection rate of barley powdery mildew after treatment with fungicides, OPUS” value (“Infection rate of barley powdery mildew … OPUS” below) amounted to 4%.
On the same counts, the results for Isodecyl + 6EO-C8/10 Ester [Example C1] are 5%, 26% and 21%.
On the same counts, the results for Isoamyl + 20EO laurate [Example 2] are 0%, 12% and 12%.
As to C12/14 + 20EO-C8/10 Ester [Example C4], the “Infection rate … AMISTAR” value with barley powdery mildew [1] was 18%. In addition, in the assay on barley powdery mildew [2], the “Sum of infection rates” value turned out to be 33%. For the same substance, the “Infection rate of barley powdery mildew … OPUS” value in assay [3] is 15%.
Take C12/14 + 5EO-C8/10 Ester [Example C2]: the “Infection rate … AMISTAR” value in the assay on barley powdery mildew [1] turned out to be 3%. Besides, the “Sum of infection rates” value in the assay with barley powdery mildew [2] worked out at 27%. Further, the “Infection rate of barley powdery mildew … OPUS” value in assay [3] came out at 24%.
As to Decyl + 10EO-C8/10 Ester [Example 4], the “Infection rate … AMISTAR” value in the assay on barley powdery mildew [1] worked out at 0%. For the same substance, the “Sum of infection rates” value in the assay with barley powdery mildew [2] is reported as 22%. The “Infection rate of barley powdery mildew … OPUS” value in assay [3] was found to be 22%.
Regarding C12/14 + 10EO-C8/10 Ester [Example C3], the “Infection rate … AMISTAR” value with barley powdery mildew [1] was 2%. Also, the “Sum of infection rates” value in the assay with barley powdery mildew [2] worked out at 31%. In addition, the “Infection rate of barley powdery mildew … OPUS” value in assay [3] came out at 29%.
On the same counts, the results for Decyl + 20EO-C8/10 Ester [Example 5] are 12%, 23% and 11%.
Regarding Isoamyl + 20EO oleate [Example 1], the “Infection rate … AMISTAR” value in the assay on barley powdery mildew [1] worked out at 0%. Further, in the assay on barley powdery mildew [2], the “adjuvancy effect considering the performance in both trials” value is given as “best adjuvancy effect” and the “Sum of infection rates” value came to 7%. For the same substance, the “Infection rate of barley powdery mildew … OPUS” value in assay [3] amounted to 7%.
As for Isoamyl + 5EO oleate [Example C5], the “Infection rate … AMISTAR” value with barley powdery mildew [1] turned out to be 17%. For the same substance, in the assay on barley powdery mildew [2], the “adjuvancy effect considering the performance in both trials” value is on record as “does not give acceptable results” and the “Sum of infection rates” value was 34%. The “Infection rate of barley powdery mildew … OPUS” value in assay [3] came out at 17%.

The record behind these values is patent US20130303378A1, “Biocide Compositions Comprising Esters Of Ethoxylated Alcohols” (priority 2010, published 2013).
